Data on eleven compounds can be found in patent US10213451B2, “Methods and compounds for modulating the secretion or expression of adhesion proteins or angiopoietins of cells” (PACIFIC ARROW LIMITED, priority 2004, dated 2019).

Values after ≈ are worked out from the molar mass of the structure shown.

The experiment has as its system ES2(ovarian) cells. The experiment is described as follows: MTT assay ES2. The following applies: ES2 cells. The experiment is classed as cell-based, human. The method, then:
MTT Assay. The procedure for MTT assay followed the method described by Carmichael et al. (1987) with modifications. The cells were seeded into a 96-well plate at concentration of 10,000/well for HTB-9, HeLa, H460, HCT116, T98G and OVCAR-3), 15,000/well for DU145, MCF-7, HepG2 and U2OS), and 40,000/well for K562 for 24 hours before drug-treatment. The cells were then exposed to the drugs for 48 hours (72 hours for HepG2 and U2OS, and 96 hours for MCF-7). After the drug-treatment, MTT (0.5 mg/mL) was added to cultures and incubated for an hour. The formazan (product of the reduction of tetrazolium by viable cells) formed and was dissolved with DMSO and the O.D. at 490 nm, and was measured by an ELISA reader. The MTT level of the cells before drug-treatment was also measured (T0). The % cell-growth (% G) is calculated as: % G=(TD−T0/TC−T0)×100(1), where TC or TD represents O.D. readings of control or drug-treated cells. When T0>TD, then the cytotoxicity (LC) expressed as % of the control is calculated as: % LC=(TD−T0/T0)×100(2).
Methods: ES2 cells were exposed to (i) Xanifolia-Y with concentrations of 40, 20, 10, 5, 2.5, and 1.25 ug/ml; or (ii) Paclitaxel with concentrations of […]; or (iii) Combined Xanifolia-Y and Paclitaxel with concentrations of each drug in same order (for example, 40 ug/ml Y plus 10 ng/ml T; 20 ug/ml Y plus 5 ng/ml T, etc. please see FIG. 28). Cells growth under these conditions was determined by the MTT assay.
Drug-treatment: cells cultures were replaced with fresh RPMI medium containing Xanifolia-Y (10 ug/ml final concentration) or DMSO (as control) at 0 hour. At 2, and 18 hour, aliquot of culture medium was taken out for Fibronectin determination (Western blot method). Cell viability at 18 hours was determined by MTT assay. Cultures were replaced with RPMI medium with MTT and incubated for an hour. The formation of formazan was dissolved in DMSO and OD at 570 nm was measured.

The compound `C/C=C(/C)C(=O)O[C@H]1[C@H](OC(C)=O)C(C)(C)CC2C3=CCC4[C@@]5(C)CC[C@H](O)C(C)(C)C5CC[C@@]4(C)[C@]3(C)C[C@@H](O)[C@]21CO` (some centres unmarked) [ACH-X] gave an IC50 of 40 µg/mL (≈ 65.1 µM).
Compound `C/C=C(/C)C(=O)O[C@H]1[C@H](OC(=O)C(C)C)[C@@]2(CO)C(CC1(C)C)C1=CCC3[C@@]4(C)CC[C@H](O)C(C)(C)C4CC[C@@]3(C)[C@]1(C)[C@@H](O)[C@H]2O` (some centres unmarked) [ACH-Y0] had an IC50 of 20 µg/mL (≈ 30.4 µM).
Regarding `CC=C(C)C(=O)OC1C(OC(=O)C(C)=CC)C2(CO)C(CC1(C)C)C1=CCC3C4(C)CCC(O)C(C)(CO)C4CCC3(C)C1(C)C(O)C2O` (centres unmarked) [ACH-Y2], the IC50 was 35 µg/mL (≈ 51 µM).
`C/C=C(/C)C(=O)O[C@H]1[C@H](O)[C@@]2(COC(=O)C(C)CC)C(CC1(C)C)C1=CCC3[C@@]4(C)CC[C@H](O)C(C)(C)C4CC[C@@]3(C)[C@]1(C)[C@@H](O)[C@H]2O` (some centres unmarked) [ACH-Y7] showed an IC50 of 65 µg/mL (≈ 96.6 µM). Against the preceding compound, the IC50 is about 1.9-fold higher.
The value for `CC=C(C)C(=O)OC1C(OC(=O)C(C)=CC)C2(CO)C(O)CC3(C)C(=CCC4C5(C)CCC(O)C(C)(CO)C5CCC43C)C2CC1(C)C` (centres unmarked) [ACH-Y8] was 35 µg/mL (≈ 52.2 µM).
The compound `C/C=C(/C)C(=O)O[C@H]1[C@H](OC(=O)/C(C)=C\C)[C@@]2(CO)C(CC1(C)C)C1=CCC3[C@@]4(C)CC[C@H](O)C(C)(C)C4CC[C@@]3(C)[C@]1(C)C[C@H]2O` (some centres unmarked) [ACH-Y10] returned an IC50 of 20 µg/mL (≈ 30.5 µM).
On to `C/C=C(/C)C(=O)O[C@H]1[C@H](OC(=O)c2ccccc2)[C@@]2(CO)C(CC1(C)C)C1=CCC3[C@@]4(C)CC[C@H](O)C(C)(C)C4CC[C@@]3(C)[C@]1(C)[C@@H](O)[C@H]2O` (some centres unmarked) [ACH-Z4], for which the IC50 came to 40 µg/mL (≈ 57.7 µM).
Consider `CC=C(C)C(=O)OC1C(OC(=O)c2ccccc2)C(C)(C)CC2C3=CCC4C5(C)CCC(OC6OC(C(=O)O)C(O)C(OC7OCC(O)C(O)C7O)C6OC6OC(CO)C(O)C(O)C6O)C(C)(C)C5CCC4(C)C3(C)CC(O)C21CO` [Ba3, 3-O-[β-D-galactopyranosyl(1→2)]-β-D-xylopyranosyl (1→3)-β-D-glucuronopyranosyl-21-O-benzoyl, 22-O-angeloyl-3β, 15α, 21β, 22α, 28-pentahydroxyolean-12-ene], for which the IC50 stood at 8 µg/mL (≈ 6.97 µM).
For `CC1(C)CC2C3=CCC4C5(C)CCC(OC6OC(C(=O)O)C(O)C(OC7OCC(O)C(O)C7O)C6OC6OC(CO)C(O)C(O)C6O)C(C)(C)C5CCC4(C)C3(C)CC(O)C2(CO)C(OC(=O)c2ccccc2)C1OC(=O)c1ccccc1` [Ba5, 3-O-[β-D-galactopyranosyl(1→2)]-β-D-xylopyranosyl (1→3)-β-D-glucuronopyranosyl-21-O-benzoyl, 22-O-benzoyl-3β, 15α, 21β, 22α, 28-pentahydroxyolean-12-ene], the IC50 came out at 16 µg/mL (≈ 13.7 µM).
`CC(C)C(=O)OC1C(OC(=O)c2ccccc2)C(C)(C)CC2C3=CCC4C5(C)CCC(OC6OC(C(=O)O)C(O)C(OC7OCC(O)C(O)C7O)C6OC6OC(CO)C(O)C(O)C6O)C(C)(C)C5CCC4(C)C3(C)CC(O)C21CO` [Ba7, 3-O-[β-D-galactopyranosyl(1→2)]-β-D-xylopyranosyl (1→3)-β-D-glucuronopyranosyl-21-O-benzoyl, 22-O-isobutyryl-3β, 15α, 21β, 22α, 28-pentahydroxyolean-12-ene] had an IC50 of 11 µg/mL (≈ 9.69 µM).
In turn, `CC1(C)CC2C3=CCC4C5(C)CCC(OC6OC(C(=O)O)C(O)C(OC7OCC(O)C(O)C7O)C6OC6OC(CO)C(O)C(O)C6O)C(C)(C)C5CCC4(C)C3(C)CC(O)C2(CO)C(O)C1OC(=O)c1ccccc1` [Ba8, 3-O-[β-D-galactopyranosyl(1→2)]-β-D-xylopyranosyl (1→3)-β-D-glucuronopyranosyl-21-O-benzoyl-3β, 15α, 21β, 22α, 28-pentahydroxyolean-12-ene] displayed an IC50 of 20 µg/mL (≈ 18.8 µM).
